Molecular target: EZH2 (Homo sapiens (Human), UniProt Q15910)
Experiment: PRC2 enzyme assay on peptide substrates
Type: biochemical
Conditions: PRC2 enzyme assays on peptide substrates; 4 nM enzyme, 30 min preincubation at 25° C.; read-out: EZH2 IC50

Sequence of EZH2 (Q15910 other isoform, or with tags, fused parts or gaps): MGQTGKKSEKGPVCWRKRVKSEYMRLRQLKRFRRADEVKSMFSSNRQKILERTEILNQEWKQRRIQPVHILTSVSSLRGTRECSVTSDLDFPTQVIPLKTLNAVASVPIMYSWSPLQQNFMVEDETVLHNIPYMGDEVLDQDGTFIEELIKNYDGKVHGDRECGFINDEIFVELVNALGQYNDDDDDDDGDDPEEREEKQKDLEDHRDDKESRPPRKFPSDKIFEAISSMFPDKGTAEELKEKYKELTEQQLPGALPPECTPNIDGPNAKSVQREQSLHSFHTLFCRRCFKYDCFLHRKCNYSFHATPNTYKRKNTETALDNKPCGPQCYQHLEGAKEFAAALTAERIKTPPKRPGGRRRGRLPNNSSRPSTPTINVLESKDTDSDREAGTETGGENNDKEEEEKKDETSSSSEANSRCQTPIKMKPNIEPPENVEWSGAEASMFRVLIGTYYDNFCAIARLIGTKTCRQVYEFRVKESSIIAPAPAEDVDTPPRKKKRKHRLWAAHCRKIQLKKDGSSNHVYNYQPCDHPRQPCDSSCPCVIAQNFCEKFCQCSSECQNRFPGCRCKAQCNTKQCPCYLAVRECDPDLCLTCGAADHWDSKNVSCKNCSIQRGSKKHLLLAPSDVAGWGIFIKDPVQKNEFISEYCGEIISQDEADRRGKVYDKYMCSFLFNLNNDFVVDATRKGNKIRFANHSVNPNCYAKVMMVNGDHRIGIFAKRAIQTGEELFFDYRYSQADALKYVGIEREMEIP
Sequence of EZH2 (O75530 whole entry partner): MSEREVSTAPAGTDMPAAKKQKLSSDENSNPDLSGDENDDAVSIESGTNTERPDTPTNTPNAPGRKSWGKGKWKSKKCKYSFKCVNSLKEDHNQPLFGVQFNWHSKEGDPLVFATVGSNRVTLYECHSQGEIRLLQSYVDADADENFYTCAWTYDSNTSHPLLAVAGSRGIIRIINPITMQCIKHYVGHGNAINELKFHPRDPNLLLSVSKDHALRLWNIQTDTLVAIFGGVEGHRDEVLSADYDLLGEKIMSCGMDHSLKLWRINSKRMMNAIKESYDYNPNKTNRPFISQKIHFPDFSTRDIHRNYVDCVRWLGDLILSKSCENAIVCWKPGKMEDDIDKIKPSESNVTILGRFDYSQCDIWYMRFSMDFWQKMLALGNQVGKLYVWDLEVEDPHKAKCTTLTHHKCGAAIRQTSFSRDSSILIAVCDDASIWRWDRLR
Sequence of EZH2 (Q15022 whole entry partner): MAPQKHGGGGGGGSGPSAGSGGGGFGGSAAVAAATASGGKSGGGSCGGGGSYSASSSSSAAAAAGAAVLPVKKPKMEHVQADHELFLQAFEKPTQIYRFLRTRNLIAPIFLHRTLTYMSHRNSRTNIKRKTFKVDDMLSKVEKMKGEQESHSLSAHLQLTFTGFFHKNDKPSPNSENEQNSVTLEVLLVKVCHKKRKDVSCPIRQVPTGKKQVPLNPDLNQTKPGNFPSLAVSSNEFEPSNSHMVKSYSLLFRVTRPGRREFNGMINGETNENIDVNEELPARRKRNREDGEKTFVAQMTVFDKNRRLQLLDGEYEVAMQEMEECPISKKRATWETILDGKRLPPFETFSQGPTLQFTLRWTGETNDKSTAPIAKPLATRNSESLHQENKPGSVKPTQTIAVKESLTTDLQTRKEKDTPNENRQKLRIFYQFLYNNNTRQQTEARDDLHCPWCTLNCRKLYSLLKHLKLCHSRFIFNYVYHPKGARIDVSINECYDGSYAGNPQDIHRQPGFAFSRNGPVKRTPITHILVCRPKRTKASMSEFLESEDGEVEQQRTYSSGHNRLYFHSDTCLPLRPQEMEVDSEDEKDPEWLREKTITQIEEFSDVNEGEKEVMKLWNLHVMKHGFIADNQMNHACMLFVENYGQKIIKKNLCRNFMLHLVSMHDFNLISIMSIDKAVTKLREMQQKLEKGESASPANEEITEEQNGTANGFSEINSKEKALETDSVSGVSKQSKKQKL
Sequence of EZH2 (Q09028 whole entry partner): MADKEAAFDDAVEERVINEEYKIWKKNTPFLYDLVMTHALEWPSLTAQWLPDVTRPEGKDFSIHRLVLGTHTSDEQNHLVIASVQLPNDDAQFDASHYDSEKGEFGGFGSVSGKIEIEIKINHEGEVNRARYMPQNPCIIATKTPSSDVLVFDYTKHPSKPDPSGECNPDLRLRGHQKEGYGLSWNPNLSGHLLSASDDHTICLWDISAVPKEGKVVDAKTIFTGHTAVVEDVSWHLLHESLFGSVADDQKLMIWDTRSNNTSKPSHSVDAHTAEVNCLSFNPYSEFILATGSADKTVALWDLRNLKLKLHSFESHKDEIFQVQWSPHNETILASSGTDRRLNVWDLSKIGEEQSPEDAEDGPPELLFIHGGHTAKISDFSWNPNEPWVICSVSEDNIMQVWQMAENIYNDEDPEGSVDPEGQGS

Molecule `CC(=O)c1cc(C(=O)NCc2c(C)cc(C)[nH]c2=O)c2cnn(C(C)C)c2n1` [Compound B-17, 6-acetyl-N-((4,6-dimethyl-2-oxo-1,2-dihydropyridin-3-yl)methyl)-1-isopropyl-1H-pyrazolo[3,4-b]pyridine-4-carboxamide] has an IC50 of 1000 to 3000 nM.
`CNCC(=O)N1CC=C(c2cc(C(=O)NCc3c(C)cc(C)[nH]c3=O)c3cnn(C(C)C)c3n2)CC1` [Compound B-39] gave an IC50 of 300 to 1000 nM.
`Cc1cc(C)c(CNC(=O)c2cc(CN(C)CCN(C)C)cc3c2cnn3C2CCCC2)c(=O)[nH]1` [Compound D-78] gave an IC50 of 1000 to 3000 nM.
In the case of `Cc1cc(C)c(CNC(=O)c2cc(N3CCCCC3)nc3c2cnn3C(C)C)c(=O)[nH]1` [Compound B-115], the IC50 is reported as 1000 to 3000 nM.
`Cc1cc(CN2CCOCC2)c(CNC(=O)c2cccc3c2cnn3C2CCCC2)c(=O)[nH]1` [Compound D-84] showed an IC50 of 3000 to 10000 nM.
Work on `Cc1cc(C)c(CNC(=O)c2cc(C3=CCCCC3)nc3c2cnn3C(C)C)c(=O)[nH]1` [Compound B-81] yielded an IC50 of 300 to 1000 nM.
Work on `Cc1cc(CN(C)C)c(CNC(=O)c2cc(-c3ccc(CN4CCOCC4)cc3)nc3c2cnn3C(C)C)c(=O)[nH]1` [Compound A-43] yielded an IC50 of 300 to 1000 nM.
With `Cc1cc(C)c(CNC(=O)c2cc(C3=CC(C)(C)NC(C)(C)C3)nc3c2cnn3C2CCNCC2)c(=O)[nH]1` [Compound B-107] the IC50 was 1000 to 3000 nM.
With `Cc1cc(C)c(CNC(=O)c2cc(CN3CCC[C@@H]3C(N)=O)cc3c2cnn3C2CCCC2)c(=O)[nH]1` [Compound D-93] the IC50 was 300 to 1000 nM.
With `Cc1cc(C)c(CNC(=O)c2cc(C3=CCN(C(=O)C4CCCNC4)CC3)nc3c2cnn3C(C)C)c(=O)[nH]1` (centres unmarked) [Compound B-28, N-((4,6-dimethyl-2-oxo-1,2-dihydropyridin-3-yl)methyl)-1-isopropyl-6-(1-(piperidine-3-carbonyl)-1,2,3,6-tetrahydropyridin-4-yl)-1H-pyrazolo[3,4-b]pyridine-4-carboxamide] the IC50 was under 300 nM.
`Cc1cc(C)c(CNC(=O)c2cc(C3=CC(C)(C)NC(C)(C)C3)nc3c2cnn3C)c(=O)[nH]1` [Compound B-153] gave an IC50 of 10000 to 50000 nM.
Work on `Cc1cc(C)c(CNC(=O)c2cc(Br)cc3c2cnn3C2CCN(Cc3ccccc3)CC2)c(=O)[nH]1` [Compound D-15, 1-(1-benzylpiperidin-4-yl)-6-bromo-N-((4,6-dimethyl-2-oxo-1,2-dihydropyridin-3-yl)methyl)-1H-indazole-4-carboxamide] yielded an IC50 of 300 to 1000 nM.
`Cc1cc(C)c(CNC(=O)c2cc(Br)cc3c2cnn3C2CCN(C(=O)C3CCCCC3)CC2)c(=O)[nH]1` [Compound D-27] was tested, and the IC50 was 300 to 1000 nM.
In the case of `Cc1cc(C)c(CNC(=O)c2cc(-c3cccc(CN4CCOCC4)c3)nc3c2cnn3C(C)C)c(=O)[nH]1` [Compound A-54], the IC50 is reported as 1000 to 3000 nM.
Molecule `Cc1cc(CN(C)C)c(CNC(=O)c2cc(-c3ccc(CN4CCOCC4)cc3)cc3c2cnn3C2CCCC2)c(=O)[nH]1` [Compound C-26] has an IC50 of under 300 nM.
Work on `Cc1cc(C)c(CNC(=O)c2cc(Cl)cc3c2cnn3C2CCN(C(=O)C(C)(C)C)CC2)c(=O)[nH]1` [Compound D-24] yielded an IC50 of under 300 nM.
`Cc1cc(C)c(CNC(=O)c2cc(Br)cc3c2cnn3C2CCN(C(=O)C(C)(C)C)C2)c(=O)[nH]1` [Compound D-33] showed an IC50 of under 300 nM.
Molecule `Cc1cc(C)c(CNC(=O)c2cc(C3=CC(C)(C)NC(C)(C)C3)nc3c2cnn3C2CCN(C)CC2)c(=O)[nH]1` [Compound B-116] has an IC50 of 1000 to 3000 nM.
With `COCc1cc(C)[nH]c(=O)c1CNC(=O)c1cc(C2=CC(C)(C)NC(C)(C)C2)nc2c1cnn2C(C)C` [Compound B-21, 1-isopropyl-N-((4-(methoxymethyl)-6-methyl-2-oxo-1,2-dihydropyridin-3-yl)methyl)-6-(2,2,6,6-tetramethyl-1,2,3,6-tetrahydropyridin-4-yl)-1H-pyrazolo[3,4-b]pyridine-4-carboxamide] the IC50 was 300 to 1000 nM.
Work on `Cc1cc(C)c(CNC(=O)c2cc(-c3ccc(CN4CCNC(=O)C4)cc3)cc3c2cnn3C2CCCC2)c(=O)[nH]1` [Compound C-25] yielded an IC50 of under 300 nM.
Molecule `Cc1cc(C)c(CNC(=O)c2cc(-c3cnn(CCN4CCOCC4)c3)cc3c2cnn3C2CCCC2)c(=O)[nH]1` [Compound C-33] has an IC50 of under 300 nM.
For `Cc1cc[nH]c(=O)c1CNC(=O)c1cc(-c2cccc(CN3CCN(C)CC3)c2)nc2c1cnn2C(C)C` [Compound A-72], the IC50 was 10000 to 50000 nM.
For `Cc1cc(C)c(CNC(=O)c2cc(Br)cc3c2cnn3C2CCN(C(C)C)CC2)c(=O)[nH]1` [Compound D-70], the IC50 was 1000 to 3000 nM.
`Cc1cc(C)c(CNC(=O)c2cc(N3CCC(N4CCNCC4)CC3)nc3c2cnn3C(C)C)c(=O)[nH]1` [Compound B-44] showed an IC50 of 300 to 1000 nM.
`Cc1cc(C)c(CNC(=O)c2ccnc3c2ccn3C(C)C)c(=O)[nH]1` [Compound F-1] showed an IC50 of 3000 to 10000 nM.
`CC(=O)N1CCC(n2ncc3c(C(=O)NCc4c(C)cc(C)[nH]c4=O)cc(Br)cc32)CC1` [Compound D-59] gave an IC50 of 300 to 1000 nM.
For `Cc1cc(C)c(CNC(=O)c2cc(-c3ccc(N4CCNCC4)cc3)nc3c2cnn3C(C)C)c(=O)[nH]1` [Compound A-7, N-((4,6-dimethyl-2-oxo-1,2-dihydropyridin-3-yl)methyl)-1-isopropyl-6-(4-(piperazin-1-yl)phenyl)-1H-pyrazolo[3,4-b]pyridine-4-carboxamide], the IC50 was under 300 nM.
Molecule `Cc1cc(C)c(CNC(=O)c2cc(C3CCN(CCN)CC3)cc3c2cnn3C2CCCC2)c(=O)[nH]1` [Compound D-96] has an IC50 of under 300 nM.
Molecule `Cc1cc(C)c(CNC(=O)c2cc(C3=CC(C)(C)NC(C)(C)C3)nc3c2cnn3C2CCN(Cc3ccccc3)CC2)c(=O)[nH]1` [Compound B-1, 1-(1-benzylpiperidin-4-yl)-N-((4,6-dimethyl-2-oxo-1,2-dihydropyridin-3-yl)methyl)-6-(2,2,6,6-tetramethyl-1,2,3,6-tetrahydropyridin-4-yl)-1H-pyrazolo[3,4-b]pyridine-4-carboxamide] has an IC50 of under 300 nM.
Molecule `Cc1cc(C)c(CNC(=O)c2cc(-c3cccc(CNCCN)c3)nc3c2cnn3C(C)C)c(=O)[nH]1` [Compound A-26] has an IC50 of 300 to 1000 nM.
Molecule `Cc1cc(C)c(CNC(=O)c2cc(-c3cccc(CNC(=O)OC(C)(C)C)c3)nc3c2cnn3C(C)C)c(=O)[nH]1` [Compound A-92] has an IC50 of 1000 to 3000 nM.
In the case of `Cc1cc(C)c(CNC(=O)c2cc(C(=O)N(C)CCN(C)C)nc3c2cnn3C(C)C)c(=O)[nH]1` [Compound B-133], the IC50 is reported as 3000 to 10000 nM.
For `Cc1cc(C)c(CNC(=O)c2cc(C3=CCN(C(=O)CN)CC3)cc3c2cnn3C2CCCC2)c(=O)[nH]1` [Compound D-47], the IC50 was under 300 nM.
With `Cc1cc(C)c(CNC(=O)c2cc(Br)cc3c2cnn3C2CCN(C(=O)OC(C)(C)C)C2)c(=O)[nH]1` [Compound D-32] the IC50 was 300 to 1000 nM.
Work on `Cc1cc(C)c(CNC(=O)c2cc(CNCCO)cc3c2cnn3C2CCCC2)c(=O)[nH]1` [Compound D-77] yielded an IC50 of 1000 to 3000 nM.
With `Cc1cc(C)c(CNC(=O)c2cc(NCCS(C)(=O)=O)nc3c2cnn3C(C)C)c(=O)[nH]1` [Compound B-114] the IC50 was 1000 to 3000 nM.
`CNCCN1CCC(c2cc(C(=O)NCc3c(C)cc(C)[nH]c3=O)c3cnn(C4CCCC4)c3c2)CC1` [Compound D-51] showed an IC50 of under 300 nM.
`Cc1cc(C)c(CNC(=O)c2cc(N3CCC(O)C3)nc3c2cnn3C(C)C)c(=O)[nH]1` (centres unmarked) [Compound B-119] was tested, and the IC50 was 1000 to 3000 nM.
For `Cc1cc(C)c(CNC(=O)c2cc(-c3cccc(CNCCO)c3)cc3c2cnn3C2CCCC2)c(=O)[nH]1` [Compound C-9, 1-cyclopentyl-N-((4,6-dimethyl-2-oxo-1,2-dihydropyridin-3-yl)methyl)-6-(3-(((2-hydroxyethyl)amino)methyl)phenyl)-1H-indazole-4-carboxamide], the IC50 was under 300 nM.
Work on `Cc1cc(C)c(CNC(=O)c2cc(C3=CCN(C(=O)C4CCNCC4)CC3)cc3c2cnn3C2CCCC2)c(=O)[nH]1` [Compound D-39] yielded an IC50 of under 300 nM.
In the case of `Cc1cc(C)c(CNC(=O)c2cc(C3=CC(C)(C)NC(C)(C)C3)cc3c2cnn3C2CCCC2)c(=O)[nH]1` [Compound D-2, 1-cyclopentyl-N-((4,6-dimethyl-2-oxo-1,2-dihydropyridin-3-yl)methyl)-6-(2,2,6,6-tetramethyl-1,2,3,6-tetrahydropyridin-4-yl)-1H-indazole-4-carboxamide], the IC50 is reported as under 300 nM.
With `Cc1cc(C)c(CNC(=O)c2cc(C3CCN(CCN(C)C)CC3)cc3c2cnn3C2CCCC2)c(=O)[nH]1` [Compound D-46] the IC50 was under 300 nM.
`Cc1cc(C)c(CNC(=O)c2cc(C3CCN(CCS(C)(=O)=O)CC3)nc3c2cnn3C(C)C)c(=O)[nH]1` [Compound B-83] gave an IC50 of 300 to 1000 nM.
Work on `Cc1cc(C)c(CNC(=O)c2cc(C3CCNCC3)nc3c2cnn3C(C)C)c(=O)[nH]1` [Compound B-24, N-((4,6-dimethyl-2-oxo-1,2-dihydropyridin-3-yl)methyl)-1-isopropyl-6-(piperidin-4-yl)-1H-pyrazolo[3,4-b]pyridine-4-carboxamide] yielded an IC50 of 300 to 1000 nM.
For `Cc1cc(C)c(CNC(=O)c2cc(C=O)nc3c2cnn3C(C)C)c(=O)[nH]1` [Compound B-22, N-((4,6-dimethyl-2-oxo-1,2-dihydropyridin-3-yl)methyl)-6-formyl-1-isopropyl-1H-pyrazolo[3,4-b]pyridine-4-carboxamide], the IC50 was under 300 nM.
`Cc1cc(C)c(CNC(=O)c2cc(C3=CC(C)(C)NC(C)(C)C3)nc3c2cnn3C2C=CCCC2)c(=O)[nH]1` (centres unmarked) [Compound B-103] gave an IC50 of 1000 to 3000 nM.
Molecule `Cc1cc(C)c(CNC(=O)c2cc(C3=CCN(C(=O)CN)CC3)nc3c2cnn3C(C)C)c(=O)[nH]1` [Compound B-63] has an IC50 of 300 to 1000 nM.
Work on `Cc1cc(C)c(CNC(=O)c2c(Cl)c(-c3ccc4c(c3)OCCO4)cc3c2cnn3C(C)C)c(=O)[nH]1` [Compound A-47] yielded an IC50 of 300 to 1000 nM.
`Cc1cc(C)c(CNC(=O)c2cc(-c3ccc(N4CCN(C(=O)OC(C)(C)C)CC4)nc3)nc3c2cnn3C(C)C)c(=O)[nH]1` [Compound A-44] showed an IC50 of 300 to 1000 nM.
Molecule `Cc1cc(C)c(CNC(=O)c2cc(C3CCOCC3)nc3c2cnn3C(C)C)c(=O)[nH]1` [Compound B-129] has an IC50 of 3000 to 10000 nM.
`Cc1cc(C)c(CNC(=O)c2cc(C3CCN(C(=O)C4CN(C)C4)CC3)nc3c2cnn3C(C)C)c(=O)[nH]1` [Compound B-8, N-((4,6-dimethyl-2-oxo-1,2-dihydropyridin-3-yl)methyl)-1-isopropyl-6-(1-(1-methylazetidine-3-carbonyl)piperidin-4-yl)-1H-pyrazolo[3,4-b]pyridine-4-carboxamide] gave an IC50 of under 300 nM.
`Cc1cc(C)c(CNC(=O)c2cc(C3=CCN(CCN)CC3)cc3c2cnn3C2CCCC2)c(=O)[nH]1` [Compound D-49] gave an IC50 of under 300 nM.
For `Cc1cc(CN(C)CCN)c(CNC(=O)c2cccc3c2cnn3C2CCCC2)c(=O)[nH]1` [Compound D-76], the IC50 was 1000 to 3000 nM.

Source: US9637472B2, “Substituted 6,5-fused bicyclic heteroaryl compounds” (Epizyme, Inc., priority 2011, dated 2017)
